The text below walks through data of ChEMBL document CHEMBL1154558, “Cytotoxic prenylxanthones from Garcinia bracteata” (J Nat Prod, 2000).

One experiment relates to KB. The experiment can be described thus: Cytotoxicity against human KB cells by colorimetric assay. It counts as functional, cell-based.
The nature of experiment [1]: Inhibition of FTase by fluorimetry.

In brackets after ≈: the same amount, converted by molar mass.

For `COc1cc2c(c3c1C(=O)C1=C[C@@H]4C[C@H]5C(C)(C)O[C@](CC=C(C)C)(C4=O)[C@@]15O3)C(C)(C)[C@H](C)O2`, inhibition in the experiment with KB was half-maximal at 0.8 µg/mL (≈ 1.67 µM) (IC50). In experiment [1], this compound displayed an Activity of more than 10 µg/mL.
In the same order, the values of `C=CC(C)(C)c1c(O)cc(OC)c2c1O[C@]13[C@@H](C2=O)[C@H](OC)[C@@H]2C[C@H]1C(C)(C)O[C@@]3(CC=C(C)C)C2=O` are 1.5 µg/mL (≈ 2.94 µM) and more than 10 µg/mL.
In the same order, the values of `CC(C)=CC[C@]12OC(C)(C)[C@@H]3C[C@@H](C=C4C(=O)c5c(O)cc6c(c5O[C@]431)C(C)(C)[C@H](C)O6)C2=O` [ISOBRACTATIN] are 1.5 µg/mL (≈ 3.23 µM) and 5.6 µg/mL.
`C=CC(C)(C)c1c(O)cc(OC)c2c1O[C@]13C(=C[C@@H]4C[C@H]1C(C)(C)O[C@@]3(CC=C(C)C)C4=O)C2=O` displayed an IC50 in the experiment with KB of 0.3 µg/mL (≈ 0.627 µM). Also, in experiment [1], the Activity was more than 10 µg/mL.
In the experiment with KB, `C=CC(C)(C)c1c(O)cc(OC)c2c1O[C@@]13C[C@H]4[C@@H](C=C1C2=O)[C@](CC=C(C)C)(OC4(C)C)C3=O` had an IC50 of 0.2 µg/mL (≈ 0.418 µM).
As for `C=CC(C)(C)c1c(O)cc(O)c2c1O[C@]13C(=C[C@@H]4C[C@H]1C(C)(C)O[C@@]3(CC=C(C)C)C4=O)C2=O` [BRACTATIN], the IC50 with KB was found to be 0.4 µg/mL (≈ 0.861 µM). Also, the Activity in experiment [1] amounted to 4.7 µg/mL.
In the experiment on KB, `CC(C)=CC[C@@]12OC(C)(C)[C@@H]3C[C@@H](C=C4C(=O)c5c(O)cc(O)cc5O[C@]431)C2=O` had an IC50 of 0.8 µg/mL (≈ 2.02 µM).

The IC50 is the concentration that gives 50% inhibition.
